Common to all, as to format: biochemical
One assay concerns the target Taq DNA polymerase (Thermus aquaticus, UniProt P19821). Briefly: PCR with dNTPαS I: suppression of nonspecific product. The text has this: Compared to Bst DNA polymerase, Taq DNA polymerase is used much more widely, such as in polymerase chain reaction (PCR).
To test universality of suppression effect of dNTPαS I on nonspecific product, we checked 5 new pairs of primers (primer pair a, b, c, d, e) and 3 types of templates (plasmid, total human cDNA and human genome) with native dNTPs or S-modified dNTPs (FIG. 13). […] Further, S-dNTP can inhibit nonspecific amplification and increase specific product when amplifying simple plasmid template (FIG. 13B). Furthermore, when amplifying complex template (cDNA or genome), reactions using S-dNTP could exact specific product which can not be synthesized using all native dNTPs (FIG. 13B).

Assay [1] deals with Klenow fragment of DNA polymerase I (Escherichia coli, UniProt P00582). Briefly: Polymerization using TTP or 2-Se-TTP (denatured PAGE). The text has this: The 30-nt DNA products made from the polymerization using TTP and 2-Se-TTP refer to full-length product in FIGS. 2B and 2C, respectively. […] Results of thermal dynamic calculation (FIG. 18) are consistent with the denatured PAGE. The initial reaction rate ratio (TTP vs 2-Se-TTP) was around 1.24.
Chain of Klenow fragment of DNA polymerase I (P00582 324-928): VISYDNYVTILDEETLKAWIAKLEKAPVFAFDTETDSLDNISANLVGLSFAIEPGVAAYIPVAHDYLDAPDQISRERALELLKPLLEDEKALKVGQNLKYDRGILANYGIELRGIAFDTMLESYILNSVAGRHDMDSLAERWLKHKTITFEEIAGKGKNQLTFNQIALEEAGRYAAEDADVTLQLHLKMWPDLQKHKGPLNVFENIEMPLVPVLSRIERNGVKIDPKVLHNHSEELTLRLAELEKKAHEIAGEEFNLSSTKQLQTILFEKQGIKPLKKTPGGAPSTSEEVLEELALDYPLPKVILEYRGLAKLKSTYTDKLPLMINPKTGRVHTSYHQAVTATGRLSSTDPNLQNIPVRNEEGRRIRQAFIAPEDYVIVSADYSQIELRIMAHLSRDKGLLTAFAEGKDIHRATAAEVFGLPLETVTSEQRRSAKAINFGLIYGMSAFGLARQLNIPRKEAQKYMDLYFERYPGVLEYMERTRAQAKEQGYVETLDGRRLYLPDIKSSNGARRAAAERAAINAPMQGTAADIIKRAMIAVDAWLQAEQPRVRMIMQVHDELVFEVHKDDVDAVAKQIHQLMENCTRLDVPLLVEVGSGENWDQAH

A further assay has as its target DNA polymerase (Escherichia coli, UniProt P00582). In words: Misincorporation of 2-Se-TTP: extension with each dNTP except dCTP. The settings on record: dCTP not present; up to 30 minutes. The protocol:
Experiments to examine the misincorporation of 2-Se-TTP were conducted as follows. Broadly, enzymatic extension reactions were performed using each naturally occurring dNTP except dCTP, knowing that misincorporations of TTP in place of dCTP are commonly the cause of decreased fidelity in DNA replications.

Assay [2] is described as follows: PCR of two target fragments with added 2-Se-TTP (agarose gel). As to conditions: target fragments 268bp, 405bp; 2-Se-TTP additionally added. The text has this: No bands were found in two blank groups. Thus, incorporation of 2-Se-TTP can effectively reduce the non-specific bands in PCR.
Setting [3] is: plasmid and total cDNA templates.

Chain of Taq DNA polymerase (P19821 whole entry): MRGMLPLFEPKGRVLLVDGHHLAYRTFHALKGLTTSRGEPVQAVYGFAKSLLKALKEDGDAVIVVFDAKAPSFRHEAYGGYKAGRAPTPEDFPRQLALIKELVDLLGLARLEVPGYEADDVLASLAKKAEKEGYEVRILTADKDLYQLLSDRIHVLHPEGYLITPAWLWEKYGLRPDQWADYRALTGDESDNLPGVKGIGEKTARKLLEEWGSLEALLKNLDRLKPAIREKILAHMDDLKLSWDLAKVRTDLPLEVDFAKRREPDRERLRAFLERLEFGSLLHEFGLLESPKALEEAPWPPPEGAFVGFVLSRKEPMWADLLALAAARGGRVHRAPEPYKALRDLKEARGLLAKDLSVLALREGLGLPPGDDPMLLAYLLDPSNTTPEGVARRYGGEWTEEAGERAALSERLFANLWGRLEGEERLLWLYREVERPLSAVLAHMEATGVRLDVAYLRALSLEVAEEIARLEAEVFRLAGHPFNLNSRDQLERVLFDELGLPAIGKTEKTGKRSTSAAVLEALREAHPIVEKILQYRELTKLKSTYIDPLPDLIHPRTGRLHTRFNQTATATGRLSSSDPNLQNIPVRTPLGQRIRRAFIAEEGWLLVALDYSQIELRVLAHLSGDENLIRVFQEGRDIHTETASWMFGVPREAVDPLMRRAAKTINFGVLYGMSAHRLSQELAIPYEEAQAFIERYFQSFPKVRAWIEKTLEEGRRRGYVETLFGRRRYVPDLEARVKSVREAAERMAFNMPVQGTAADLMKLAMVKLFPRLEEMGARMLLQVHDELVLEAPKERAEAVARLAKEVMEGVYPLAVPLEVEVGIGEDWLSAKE
Chain of DNA polymerase (P00582 324-928): as the sequence (P00582 324-928) above

In the case of `Nc1nc2c(ncn2C2CC(O)C(COP(O)(=[Se])OP(=O)(O)OP(=O)(O)O)O2)c(=O)[nH]1` (centres unmarked) [dGTPαSe I], at Taq DNA polymerase (setting [3]), the “suppression of nonspecific product in PCR” value (“suppression” below) is reported as “suppressed nonspecific product nearly completely”. For the compound `Nc1ccn([C@H]2C[C@H](O)[C@@H](COP(O)(=S)OP(=O)(O)OP(=O)(O)O)O2)c(=O)n1` (some centres unmarked) [dCTPαS I], the “suppression” value at Taq DNA polymerase (setting [3]) is “suppressed nonspecific product nearly completely”. `Cc1cn([C@H]2C[C@H](O)[C@@H](COP(=O)(O)OP(=O)(O)OP(=O)(O)O)O2)c(=[Se])[nH]c1=O` [Compound 2-Se-TTP, 2-Se-dTTP]: in assay [1] (Klenow fragment), the “initial reaction rate ratio (TTP vs 2-Se-TTP)” value is listed as “around 1.24”. Also, the “recognition by the Klenow fragment” value in assay [1] (compared with TTP) is given as “relatively well recognized”. Besides, the “misincorporation in place of dCTP (full-length product)” value at DNA polymerase is given as “little to no full-length product”. The “bands in PCR (nonspecific amplification)” value in assay [2] was “clean and specific bands”. In the case of `Cc1cn([C@H]2C[C@H](O)[C@@H](COP(=O)(O)OP(=O)(O)OP(=O)(O)O)O2)c(=O)[nH]c1=O` [TTP, reference compound], the “misincorporation in place of dCTP (full-length product)” value on DNA polymerase was “incorporated into the DNA primer sequence in a significant amount”. For the compound `Nc1ccn([C@H]2C[C@H](O)[C@@H](COP(O)(=S)OP(=O)(O)OP(=O)(O)O)O2)c(=O)n1` (some centres unmarked) [S-dCTP], the “suppression” value on Taq DNA polymerase (5 primer pairs, plasmid, total human cDNA and human genome templates) was “nearly completely suppressed”.

The values above are taken from patent US20230272464A1, “MODIFIED NUCLEOTIDES AND METHODS FOR DNA AND RNA POLYMERIZATION AND SEQUENCING” (SeNA Research, Incorporated, priority 2019, published 2023).
